Measurements from patent US8420119B2, “Drug composition for treating tumor with polymeric micelle encapsulating anti-neoplastic” (Industrial Technology Research Institute, priority 2009, dated 2013).
≈ marks a conversion by molar mass, not a printed value.

Key:
[1] = In vivo kinetic test of SN38; parameters: species or system SD mice; settings: for lactone form SN38 in plasma: 4 mg/kg SN38 vein injection
Procedure: The concentrations of lactone form SN38 in bloods over the time were then determined by HPLC.
T1/2 (hr), AUCINF(hr*ng/ml), CL(mL/hr/kg), and Vss (mL/kg) in Table 7 represent half-life time, […], area under the curve to infinity, clearance, and volume of distribution at steady state, and the units thereof, respectively. The n represents sample number. These parameters can be measured and/or calculated according to the techniques known in the art.

A549 = experiment: MTT assay A549; assay type: cell-based, human; settings: Lung, A549, 72 hours
Procedure: (§1) Various human cancer lines, such as A549, AS2, and H460, were implanted onto multi-well plates and Dulbecco's Modified Eagle Media (high glucose) with 10% of fetal bovine serum and 1% of P/S being added to each well. […] Then a 20 μL of 0.5 mg/ml MTT (3-(4,5-dimethylthiazol-2-yl)-2,5-diphenyltetrazolium bromide) solution was added to each well to start the reaction. After 2 hours, the suspension of each well was removed and DMSO was added into the well to dissolve formazan, which was formed during the reaction. The living cell concentration was then obtained by analyzing the OD570 and OD600 data of each well.

AS2 = experiment: MTT assay AS2; assay type: cell-based, human; settings: Lung, AS2, 72 hours
Procedure: as §1

H460 = experiment: MTT assay H460; assay type: cell-based, human; settings: Lung, H460, 72 hours
Procedure: as §1

HT29 = experiment: MTT assay HT29; assay type: cell-based, human; settings: Colorectal, HT29, 72 hours
Procedure: as §1

Colo 205 = experiment: MTT assay Colo 205; assay type: cell-based, human; settings: Colorectal, Colo 205, 72 hours
Procedure: as §1

hepG2/C3A = experiment: MTT assay hepG2/C3A; assay type: cell-based, human; settings: Liver, 72 hours
Procedure: as §1

SK-HEP-1 = experiment: MTT assay SK-HEP-1; assay type: cell-based, human; settings: Liver, SK-HEP-1, 72 hours
Procedure: as §1

AGS = experiment: MTT assay AGS; assay type: cell-based, human; settings: Stomach, 72 hours
Procedure: as §1

PC-3 = experiment: MTT assay PC-3; assay type: cell-based, human; settings: Prostate, PC-3, 72 hours
Procedure: as §1

U-87 MG = experiment: MTT assay U-87 MG; assay type: cell-based, human; settings: Brain, 72 hours
Procedure: as §1

MCF-7 = experiment: MTT assay MCF-7; assay type: cell-based, human; settings: Breast, MCF-7, 72 hours
Procedure: as §1

OVCAR-3 = experiment: MTT assay OVCAR-3; assay type: cell-based, human; settings: Ovarian, OVCAR-3, 72 hours
Procedure: as §1

5637 = experiment: MTT assay 5637; assay type: cell-based, human; settings: Bladder, 5637, 72 hours
Procedure: as §1

RPMI2650 = experiment: MTT assay RPMI2650; assay type: cell-based, human; settings: Nasalseptum, RPMI2650, 72 hours
Procedure: as §1

SCC-25 = experiment: MTT assay SCC-25; assay type: cell-based, human; settings: Tongue, SCC-25, 72 hours
Procedure: as §1

[2] = plasma SN38, 4 mg/kg vein injection

Which “lactone form SN38 in plasma” value ([1]; 0.1 Hour(s)) does the source give for `CCc1c2c(nc3ccc(O)cc13)-c1cc3c(c(=O)n1C2)COC(=O)[C@]3(O)CC` [SN38, 7-ethyl-10-hydroxycamptothecin] here?
Its value is 710.8 ng/mL.

What about the “lactone form SN38 in plasma” value ([1]; 0.2 Hour(s)) of the same compound?
Its value is 505.3 ng/mL.

And the “lactone form SN38 in plasma” value ([1]; 0.3 Hour(s))?
The value was 265.3 ng/mL.

What about the “lactone form SN38 in plasma” value ([1]; 0.500 Hour(s)) of the same compound?
The value was 143.4 ng/mL.

What about the “lactone form SN38 in plasma” value ([1]; 1.0 Hour(s)) of the same compound?
The value was 32.3 ng/mL.

What about the “lactone form SN38 in plasma” value ([1]; 2.0 Day(s)) of the same compound?
Its value is 12.5 ng/mL.

What about the “lactone form SN38 in plasma” value ([1]; 4.0 Day(s)) of the same compound?
Its value is 9.0 ng/mL.

What about the “lactone form SN38 in plasma” value ([1]; 8.0 Day(s)) of the same compound?
The value was 7.3 ng/mL.

What about the “lactone form SN38 in plasma” value ([1]; 24.0 Day(s)) of the same compound?
Its value is 1.0 ng/mL.

What about the “AUCINF” value [1, 2] of the same compound?
Its value is 417 ng·h/mL.

What about the “CL” value [1, 2] of the same compound?
Its value is 41.5 mL/min/kg.

What about the “T1/2” value [1, 2] of the same compound?
Its value is 6.2 h.

And the “Vss” value [1, 2]?
The value was 34.3 L/kg.

What about the IC50 (A549) of the same compound?
The IC50 was 0.01387 ± 0.00123 µg/mL (≈ 0.0353 µM).

What about the IC50 (AS2) of the same compound?
The IC50 was 0.00176 ± 0.00023 µg/mL (≈ 0.00449 µM).

And the IC50 (H460)?
Its IC50 is 0.00318 ± 0.00026 µg/mL (≈ 0.0081 µM).

What about the IC50 (HT29) of the same compound?
The IC50 was 0.0034 µg/mL (≈ 0.00866 µM).

And the IC50 (Colo 205)?
The IC50 was 0.00563 ± 0.00096 µg/mL (≈ 0.0143 µM).

And the IC50 (hepG2/C3A)?
The IC50 was 0.0287 ± 0.0092 µg/mL (≈ 0.0731 µM).

What about the IC50 (SK-HEP-1) of the same compound?
The IC50 was 0.01521 ± 0.00133 µg/mL (≈ 0.0388 µM).

What about the IC50 (AGS) of the same compound?
Its IC50 is 0.04022 ± 0.01424 µg/mL (≈ 0.102 µM).

What about the IC50 (PC-3) of the same compound?
The IC50 was 0.0959 ± 0.02127 µg/mL (≈ 0.244 µM).

And the IC50 (U-87 MG)?
Its IC50 is 0.01022 ± 0.0026 µg/mL (≈ 0.026 µM).

And the IC50 (MCF-7)?
Its IC50 is 0.06093 ± 0.04886 µg/mL (≈ 0.155 µM).

And the IC50 (OVCAR-3)?
The IC50 was 0.02273 ± 0.00214 µg/mL (≈ 0.0579 µM).

And the IC50 5637?
Its IC50 is 0.00036 ± 3e-05 µg/mL (≈ 0.000917 µM).

What about the IC50 (RPMI2650) of the same compound?
The IC50 was 0.00097 ± 7e-05 µg/mL (≈ 0.00247 µM).

What about the IC50 (SCC-25) of the same compound?
Its IC50 is 0.01971 ± 0.01128 µg/mL (≈ 0.0502 µM).
